# US6420367B1, “Pyrimidine derivatives exhibiting antitumor activity” (Shionogo & Co., Ltd., priority 1998, dated 2002)
# Assays:
# [1] = tested on: DT-R cells (pRRE3-luc-transfected v-ki-ras-transformed NIH3T3 cells); signal derived from Ras oncogene products; assay: Inhibitory effect against cellular signaling derived from Ras oncogene products: luciferase reporter, dissociation of DT-R from DT-C activity (MAC); format: cell-based, mouse; conditions: minimal tested concentration at which luciferase activities of DT-C cells and DT-R cells dissociated
# Method in brief: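 DT-R (pRRE3-luc) and control DT-C (pGV-P) v-Ki-ras NIH3T3 cells were exposed 24 h to compound in 3-fold dilutions in DMEM/10% FCS at 37 °C, then lysed for luciferase luminescence. MAC is the lowest tested concentration at which DT-R and DT-C activities dissociate.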
# [2] = tested on: DT-C cells (pGV-P-transfected v-ki-ras-transformed NIH3T3 cells); assay: Luciferase activity in control DT-C cells (IC50-C): non-specific transcription-inhibitory effect or cytotoxicity; format: cell-based, mouse; conditions: tested concentration nearest to 50% inhibition in DT-C cells; index of non-specific transcription inhibition or cytotoxicity
# Description: Test Example 1 Inhibitory Effect Against Cellular Signaling Derived From Ras Oncogene Products
# 1) Establishment of Cell Lines Used in Assay
# Based on the reporter plasmid (pGV-P (Toyo Ink, Japan)), in which luciferase gene was ligated to SV40-derived minimal promoter, we constructed a plasmid designated pRRE3-luc by inserting 3 copies of chemically synthesized oligonucleotides (Sequence: CAGGATATGACTCT, derived from mouse NVL-3 (M. A. Reddy et al.(1992)Mol. Endocrinol., 6, 1051)) into upstream of the promoter. v-ki-ras-transformed NIH3T3 cells (DT cells, provided by Dr. Makoto Noda (Kyoto Univ., School of medicine)) were transfected with this plasmid by liposome-mediated transfection and transfected cell lines stably incorporated and maintained each plasmid were obtained. We named pGV-P and pRRE3-transfected cell line as DT-C and DT-R, respectively and used in the assay described below.
# 2) Preparation of Samples
# i) All the cell lines were cultured in Dulbecco's Modified Essential Medium (DMEM: 10% Fetal Calf Serum(FCS: Hyclone, USA)) including […] kanamycin (Meiji Seika, Japan) in humidified incubator under condition of 5% CO2 at 37° C.
# ii) DT-C and DT-R cells were seeded at 2500 cells/well into flat-bottom 96 well multiplate (Sumitomo bakelite) and incubated for 24 hours.
# iii) Test compounds were prepared as 1 mg/ml DMSO solution.
# iv) The solution of test compounds were added to the culture. Tested compounds are used at the concentration from […] to 0.51 ng/ml with by 3-fold dilution.
# v) After 24 hours, the culture supernatant was completely aspirated and […] of cell-lysing solution (PGC-50 (Toyo Ink, Japan)) was added before cells were dried up. In order to the cells were lysed completely, multiwell plates were left at room temperature for 10 to 30 min. The plates were wrapped up and stored at −20° C. till the day of measurement.
# 3) Measurement of Samples
# i) Melt the samples by putting 96 well multiplate at 37° C. and add 90 μl/well 25 mM Tris (pH 7.5).
# ii) Transfer 50 μl of the sample (110 μl) to the 96 well microplate for measurement (Microlite 1 (Dynatech)).
# iii) Measure the samples by the luminometer, LUMINOUS CT9000D (Dia-Yatron, Japan). We used Pickagene luminescence kit PGL2000 or LT2.0 (Toyo Ink, Japan) as substrates for luminescence measurement (50 μl/well).
# 4) Judgment of the Results
# i) The luciferase activity of DT-C cells and DT-R cells were plotted in the graph where the relative activity and the compound concentration were expressed as Y-axis and X-axis, respectively. We judged by the degree of dissociation between the activities of DT-C cells and DT-R cells as an index.
# ii) Concretely, efficacy of the compound was expressed by two values described below.
# b) Among the points of concentration tested, the concentration which is the nearest to 50% inhibition concentration at DT-C cells (IC50-C), was shown as an index of non-specific transcription-inhibitory effect or of cytotoxicity. In case of positive compounds, 50% inhibition concentration above the area of active concentration in DT-C cells was expressed as IC50-C.
# [3] = tested on: human squamous lung cancer RERF-RC-AI; assay: In vitro cell growth inhibition test, MTT assay; format: cell-based; conditions: MTT assay 4 days after compound addition
# Method in brief: (§1)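 In vitro testing uses the MTT assay. The same panel includes human pancreas cancer PANC-1.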
# [4] = tested on: human lung adenocarcinoma A549; assay: In vitro cell growth inhibition test, MTT assay; format: cell-based; conditions: MTT assay 4 days after compound addition
# Method in brief: as §1
# [5] = tested on: human squamous lung cancer Ma44; assay: In vitro cell growth inhibition test, MTT assay; format: cell-based; conditions: MTT assay 4 days after compound addition
# Method in brief: as §1
# human colon cancer HT29 = assay: In vitro cell growth inhibition test, MTT assay; format: cell-based; conditions: MTT assay 4 days after compound addition
# Method in brief: as §1
# [6] = tested on: human pancreas cancer PANC-1; assay: In vitro cell growth inhibition test, MTT assay; format: cell-based; conditions: MTT assay 4 days after compound addition
# Method in brief: as §1
SMILES,"IC50, RERF-LC-AI [3]","IC50, A549 [4]","IC50, Ma44 [5]","IC50, HT29 (human colon cancer HT29)","IC50, PANC-1 [6]",MAC (Minimal Active Concentration) [1],IC50-C [2]
CCCNC(=Nc1nc(C)ncc1CSc1nnc(-c2ccc([N+](=O)[O-])cc2)o1)NC.Cl [Compound A-164],,,,,,0.0137 µg/mL,>10 µg/mL
CCNC(=Nc1nc(C)ncc1CSc1nnc(-c2ccc(Cl)cc2NC(C)=O)o1)NCC [Compound A-61],0.0041 µg/mL,,0.016 µg/mL,,0.0063 µg/mL,<0.000508 µg/mL,>10 µg/mL
CCNC(=Nc1nc(C)ncc1CSc1nnc(-c2c(N)cccc2F)o1)NCC [Compound A-51],0.012 µg/mL,,0.088 µg/mL,0.028 µg/mL,,0.123 µg/mL,3.33 µg/mL
CCNC(=Nc1nc(C)ncc1CSc1nnc(-c2ccc(Cl)cc2N)o1)NCC [Compound A-44],0.0061 µg/mL,,0.018 µg/mL,0.0061 µg/mL,0.16 µg/mL,<0.000508 µg/mL,3.33 µg/mL
CCNC(=Nc1nc(C)ncc1CSc1nnc(-c2ccc(N)cc2O)o1)NCC [Compound A-96],,,,,,0.370 µg/mL,>10 µg/mL
CCCNC(=Nc1nc(C)ncc1CSc1nnc(-c2ccc(N)cc2)o1)NCCC.Cl.Cl [Compound A-160],,,,,,0.0137 µg/mL,>10 µg/mL
CCNC(=Nc1ncncc1CSc1nnc(-c2ccsc2)o1)NCC [Compound D-21],0.013 µg/mL,0.049 µg/mL,0.35 µg/mL,0.016 µg/mL,,0.37 µg/mL,>10 µg/mL
CCNC(=Nc1nc(C)ncc1CSc1nnc(-c2ccc([N+](=O)[O-])cc2)o1)NC.Cl [Compound A-163],,,,,,0.0137 µg/mL,>10 µg/mL
CCNC(=Nc1nc(C)ncc1CSc1nnc(-c2cccnc2N)o1)NCC [Compound D-1],,,,,,1.11 µg/mL,>10 µg/mL
CCNC(=Nc1nc(C)ncc1CSc1nnc(-c2ccccc2N)o1)NCC [Compound A-24],0.0071 µg/mL,0.026 µg/mL,0.028 µg/mL,,,0.0137 µg/mL,3.33 µg/mL
CCNC(=Nc1ncncc1CSc1nnc(-c2ccc(C(N)=S)cc2)o1)NCC [Compound A-123],0.034 µg/mL,0.15 µg/mL,0.09 µg/mL,0.041 µg/mL,,1.11 µg/mL,>10 µg/mL
CCNC(=Nc1ncncc1CSc1nnc(-c2ccc(SC)cc2)o1)NCC [Compound A-120],0.024 µg/mL,1.3 µg/mL,0.1 µg/mL,0.023 µg/mL,0.055 µg/mL,0.123 µg/mL,

# Further lines, with some results ahead:
"IC50, RERF-LC-AI [3]","IC50, A549 [4]","IC50, Ma44 [5]","IC50, HT29 (human colon cancer HT29)","IC50, PANC-1 [6]",SMILES,MAC (Minimal Active Concentration) [1],IC50-C [2]
0.016 µg/mL,0.06 µg/mL,0.055 µg/mL,,,CCNC(=Nc1nc(C)ncc1CSc1nnc(-c2ccccc2NC(=O)CC)o1)NCC [Compound A-26],0.370 µg/mL,>10 µg/mL
0.046 µg/mL,0.1 µg/mL,2.4 µg/mL,0.033 µg/mL,,CCNC(=Nc1ncncc1CSc1nnc(-c2ccoc2)o1)NCC [Compound D-30],1.11 µg/mL,>10 µg/mL
0.022 µg/mL,0.026 µg/mL,0.024 µg/mL,0.028 µg/mL,,CCNC(=Nc1ncncc1CSc1nnc(-c2ccc([N+](=O)[O-])cc2OC)o1)NCC [Compound A-124],0.0137 µg/mL,>10 µg/mL
0.0016 µg/mL,,0.0032 µg/mL,0.0028 µg/mL,,CCNC(=Nc1nc(C)ncc1CSc1nnc(-c2ccc(F)cc2N)o1)NCC [Compound A-49],<0.000508 µg/mL,3.33 µg/mL
0.006 µg/mL,,0.053 µg/mL,,0.0087 µg/mL,CCNC(=Nc1nc(C)ncc1CSc1nnc(-c2ccc(C)cc2N)o1)NCC [Compound A-63],0.0412 µg/mL,3.33 µg/mL
0.023 µg/mL,0.032 µg/mL,0.065 µg/mL,0.049 µg/mL,,CCNC(=Nc1nc(C)ncc1CSc1nnc(-c2ccsc2NC(C)=O)o1)NCC [Compound D-36],0.0412 µg/mL,>10 µg/mL
0.0072 µg/mL,,0.026 µg/mL,0.015 µg/mL,0.014 µg/mL,CCCNC(=Nc1nc(C)ncc1CSc1nnc(-c2ccccc2N)o1)NCC [Compound A-36],0.0412 µg/mL,3.33 µg/mL
0.006 µg/mL,0.042 µg/mL,0.063 µg/mL,0.0077 µg/mL,,CCNC(=Nc1ncncc1CSc1nnc(-c2ccc(F)cc2)o1)NCC [Compound A-110],0.123 µg/mL,>10 µg/mL
0.007 µg/mL,,0.032 µg/mL,0.025 µg/mL,0.03 µg/mL,CCCNC(N)=Nc1nc(C)ncc1CSc1nnc(-c2ccc([N+](=O)[O-])cc2)o1 [Compound A-158],0.0412 µg/mL,>10 µg/mL
0.008 µg/mL,,0.04 µg/mL,0.012 µg/mL,0.018 µg/mL,CCNC(=Nc1nc(CC)ncc1CSc1nnc(-c2ccc(N)cc2)o1)NCC [Compound A-154],0.0412 µg/mL,>10 µg/mL
0.005 µg/mL,,0.044 µg/mL,0.008 µg/mL,0.015 µg/mL,CCCNC(N)=Nc1nc(C)ncc1CSc1nnc(-c2ccc(N)cc2)o1 [Compound A-157],0.0137 µg/mL,>10 µg/mL
0.11 µg/mL,0.22 µg/mL,0.52 µg/mL,0.09 µg/mL,,CCNC(=Nc1ncncc1CSc1nnc(-c2ccc(C)nc2)o1)NCC [Compound D-29],1.11 µg/mL,>10 µg/mL
0.023 µg/mL,0.38 µg/mL,2 µg/mL,0.064 µg/mL,,CCNC(=Nc1ncncc1CSc1nnc(-c2ccc(N)cc2)o1)NCCOC(C)=O [Compound A-112],1.11 µg/mL,>10 µg/mL
0.004 µg/mL,,0.012 µg/mL,,0.0039 µg/mL,CCNC(=Nc1nc(C)ncc1CSc1nnc(-c2ccc(F)cc2NC(C)=O)o1)NCC [Compound A-60],<0.000508 µg/mL,>10 µg/mL
